Laboratory results from patent US11414374B2, “Crystalline forms of vilanterol trifenatate and processes for their preparation” (Hovione Scientia Limited, priority 2017, dated 2022).

What was measured:
Type in all cases: physicochemical
XRPD after Grinding = conditions: resulting form after grinding
[1] = Stability test (exposed sample 16 h), form by XRPD; conditions: resulting form
[2] = Stability test (60° C. 75% RH-3 d), form by XRPD; conditions: resulting form
[3] = DSC - differential scanning calorimetry; conditions: for DSC (onset) endo. Form 1 melting: endothermic event: Form 1 melting; for DSC (onset) endo. degradation: endothermic event: degradation; for DSC (onset) endo. solvent loss: endothermic event: solvent loss
Experimental: The analysis was carried out using a DSC Q200 TA instruments equipped with a refrigerator cooling system (RCS40) and autosampler. The sample was weighed in an aluminum hermetic pan with pinhole. The analysis was performed heating the sample from 25° C. to 350° C. at 10° C./min.

[4] = Dynamic vapor sorption (DVS) analysis / hygroscopicity (EP 7.0 classification); conditions: for Hygroscopically (DVS): DVS hygroscopicity class; for XRPD after DVS: resulting form after DVS
Experimental: The hygroscopicity value is directly obtained from the sorption row at 80% RH, cycle 1.
Hygroscopicity of a sample of each of new form II and comparative form I was determined using the protocol provided below in conditions of 80% RH and 25° C.
The sample was subjected to DVS measuring using SMS-DVS intrinsic. The kinetic moisture sorption measurement was performed at 25° C. and in a RH % range described in the following: • From 40% RH to 90% RH • Form 90% RH to 0% RH • From 0% RH to 90% RH • From 90% RH to 0% RH
The sample was analyzed by XRPD after the analysis.
The hygroscopicity was calculated using the following equation: % Weight Change=[(W2−W1)/W1]*100 W1: weight of sample at the start of the experiment (25° C. and 40% RH) W2: weight of sample at 25° C. and 80% RH in the first absorption cycle

[5] = Storage stability of exposed powder at 25° C. and 60% RH for seven days, compared by XRPD; conditions: 25° C. 60% RH, 7 d, resulting form
Experimental: Approximately 30 mg of exposed powder of comparative form 1 and new forms II and III, respectively, were stored at 25′C and 60% RH for seven days. Each powder was then analyzed by XRPD and its diffraction pattern was compared with that of untreated sample.

[6] = TGA / TGA-EGA thermogravimetric analysis with evolved gas analysis; conditions: for EGA: evolved solvent identified; for TGA overall weight loss: overall loss of the named solvent(s)
Experimental: The analysis was carried out using the Mettler Toledo TGA/DSC1. The sample was weighed in an aluminum pan hermetically sealed with an aluminum pierced cover. The analysis was performed heating the sample from 25° C. to 320° C. at 10° C./min. TGA-FTIR coupled with Thermo Nicoled is 10 spectometer. The analysis was carried out using the mettler toledo TGA/DSC1. The sample was weighed in an aluminum pan hermetically sealed with an aluminum pierced cover. The analysis was performed heating the sample from 25° C. to 320° C. at 10° C./min. The evolved gas is compared with ft-ir spectra database for identification.

[7] = Stability test (sealed vial 18 h), form by XRPD; conditions: resulting form

## OCc1cc([C@@H](O)CNCCCCCCOCCOCc2c(Cl)cccc2Cl)ccc1O [form XI, vilanterol trifenatate]
XRPD after Grinding; listed as Form 11
  XRPD after Grinding: Form 12
[1]; listed as Form 11
  Stability test (exposed sample 16 h): Form 11
[2]; listed as Form 11
  Stability test (60° C. 75% RH-3 d): Form 1 (almost
[3]; listed as Form 11
  DSC (onset) endo. Form 1 melting: endo. 135 °C Form 1
  DSC (onset) endo. degradation: endo. 188.6 °C
  DSC (onset) endo. solvent loss: endo. 50-100 °C solvent loss
[4]; listed as Form 11
  Hygroscopically (DVS): Slightly hygroscopic (Increase in mass is less than 2% and equal to or greater than 0.2%)
  XRPD after DVS: Ascribable to Form 11
[5]; listed as Form 11
  Stability test (25° C. 60% RH-7 d): Form 1 (start
[6]; listed as Form 11
  EGA: Cyclohexane and 2-
  TGA overall weight loss: loss of 51% w/w
[7]; listed as Form 11
  Stability test (sealed vial 18 h): Form 11

## OCc1cc([C@@H](O)CNCCCCCCOCCOCc2c(Cl)cccc2Cl)ccc1O [form XII, vilanterol trifenatate]
XRPD after Grinding; listed as Form 12
  XRPD after Grinding: Amorphous (few
[1]; listed as Form 12
  Stability test (exposed sample 16 h): Form 12
[2]; listed as Form 12
  Stability test (60° C. 75% RH-3 d): Form 1 (almost
[3]; listed as Form 12
  DSC (onset) endo. Form 1 melting: endo. 134 °C Form 1
  DSC (onset) endo. degradation: endo. 189 °C
  DSC (onset) endo. solvent loss: endo. 21 °C solvent loss
[4]; listed as Form 12
  Hygroscopically (DVS): Slightly
  XRPD after DVS: Form 1
[5]; listed as Form 12
  Stability test (25° C. 60% RH-7 d): Form 1 (almost
[6]; listed as Form 12
  EGA: Water and 1.2-
  TGA overall weight loss: One loss of 61.6% w/w
[7]; listed as Form 12
  Stability test (sealed vial 18 h): Form 12
